Structures are written as SMILES.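 Following 48 hours of exposure in 96-well plates, responses at five concentrations were used to interpolate endpoints linearly. Abbreviation: GI50, concentration required for 50% inhibition of growth.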 The source made the active and inactive calls. No stated cut-off is given here; in the data, active = GI50 up to about 1.1 µM and inactive = higher. Where a SMILES comes first, the peptide text is derived from it.

Test systems include SF-295; A498; TK-10; SF-539; HT-29; COLO 205; CCRF-CEM; UO-31; ACHN; IGROV-1; HOP-62; SK-MEL-2; CAKI-1; Malme-3M; NCI-H522; OVCAR-5; SF-268; 786-0; NCI-H460; SK-OV-3.
Common to all, as to test: NCI tumour cell line growth inhibition, 48 h

Take `FC(F)(F)c1ccc(Cc2nc3cc4ccccc4cc3[nH]2)cc1`: the GI50 was > 100 µM (inactive) in the assay on SF-295; > 100 µM (inactive) in the assay on A498; > 100 µM (inactive) in the assay with TK-10; > 100 µM (inactive) in the assay with SF-539; 91.8 µM (inactive) in the assay on HT-29; > 100 µM (inactive) in the assay on COLO 205. Besides, the GI50 was > 100 µM (inactive) in the assay with CCRF-CEM; 58.5 µM (inactive) with UO-31; 49 µM (inactive) with ACHN; 16 µM (inactive) in the assay with IGROV-1; > 100 µM (inactive) in the assay on HOP-62; > 100 µM (inactive) with SK-MEL-2. For the same compound, the GI50 was 73.3 µM (inactive) in the assay on CAKI-1; > 100 µM (inactive) with Malme-3M; 26.7 µM (inactive) with NCI-H522; > 100 µM (inactive) in the assay with OVCAR-5; > 100 µM (inactive) with SF-268; 89.5 µM (inactive) in the assay on 786-0. The GI50 with NCI-H460 was > 100 µM (inactive).

Take `COc1ccc(/C=C2\CCCc3ccccc3C2=O)cc1`: the GI50 is 0.026 µM (active) in the assay on SF-295; 0.104 µM (active) in the assay with A498; 9.06 µM (inactive) in the assay with TK-10; 0.287 µM (active) with SF-539; 0.0849 µM (active) with HT-29; 0.0904 µM (active) with COLO 205. The GI50 with CCRF-CEM is 0.578 µM (active); with UO-31, 1.64 µM (inactive); in the assay with ACHN, 3.15 µM (inactive); in the assay on IGROV-1 it was 0.0573 µM (active); with HOP-62, 0.187 µM (active); in the assay on CAKI-1, 2.82 µM (inactive). Also, the GI50 in the assay on Malme-3M was 0.0174 µM (active); with NCI-H522, < 0.0218 µM (active); in the assay with OVCAR-5, 0.605 µM (active); in the assay on SF-268 it was 0.249 µM (active); in the assay on SK-OV-3 it was 0.119 µM (active); with 786-0, 0.0561 µM (active). Moreover, in the assay on NCI-H460, the GI50 was 0.0893 µM (active).

For the compound `CCOC(=O)c1nc2cc(C(F)(F)F)ccc2nc1Nc1ccc(OC)cc1`, the GI50 in the assay on SF-295 was 81.3 µM (inactive); in the assay with A498, > 100 µM (inactive); in the assay on TK-10 it was > 100 µM (inactive); in the assay on SF-539, > 100 µM (inactive); in the assay on HT-29, > 100 µM (inactive); in the assay with COLO 205, 47.4 µM (inactive). For the same compound, the GI50 in the assay with UO-31 was > 100 µM (inactive); with ACHN, 86.9 µM (inactive); in the assay with IGROV-1 it was > 100 µM (inactive); in the assay on HOP-62, 42.5 µM (inactive); with SK-MEL-2, > 100 µM (inactive); in the assay on CAKI-1 it was > 100 µM (inactive). Further, the GI50 was > 100 µM (inactive) in the assay on NCI-H522, > 100 µM (inactive) in the assay with OVCAR-5, > 100 µM (inactive) in the assay on SF-268 and 47.4 µM (inactive) in the assay on 786-0.

`COC(=NC(C)C)NC(C)C`: the GI50 in the assay with A498, in the assay with TK-10, with SF-539, in the assay with COLO 205, with CCRF-CEM and with UO-31 was > 100 µM (inactive) in each case. The GI50 in the assay with ACHN, with IGROV-1, in the assay with HOP-62, with SK-MEL-2, in the assay with OVCAR-5 and in the assay on SF-268 was > 100 µM (inactive) throughout. Moreover, the GI50 in the assay on SK-OV-3, in the assay on 786-0 and with NCI-H460 was > 100 µM (inactive) in each case.

For the compound `C/C(CC(=O)Nc1ccc(C)cc1C)=N/N=C(N)N`, the GI50 in the assay with SF-295, in the assay with A498, with TK-10, with SF-539, in the assay on HT-29 and in the assay with COLO 205 was > 100 µM (inactive) in each case. Besides, the GI50 in the assay with CCRF-CEM, with UO-31, with ACHN, with IGROV-1, in the assay with HOP-62 and with SK-MEL-2 was > 100 µM (inactive) in each case. Also, the GI50 in the assay with Malme-3M, in the assay with NCI-H522, in the assay with OVCAR-5, with SF-268, with SK-OV-3 and with 786-0 was > 100 µM (inactive) each time. Besides, in the assay on NCI-H460, the GI50 is > 100 µM (inactive).

Consider `CC(C)(CC(=O)Nc1ccccc1)C(=O)O`, for which the GI50 in the assay with SF-295, in the assay with A498, in the assay with TK-10, in the assay on SF-539, in the assay on HT-29 and in the assay on COLO 205 was > 100 µM (inactive) each time. Also, the GI50 in the assay on CCRF-CEM, with UO-31, in the assay with ACHN, in the assay with IGROV-1, in the assay with HOP-62 and with SK-MEL-2 was > 100 µM (inactive) throughout. Further, the GI50 in the assay with CAKI-1, in the assay on OVCAR-5, in the assay with SK-OV-3, in the assay on 786-0 and in the assay with NCI-H460 was > 100 µM (inactive) in each case.

For `N#C[BH2-][n+]1cn(C2CC(O)C(COP(=O)(O)OC3CC(n4c[n+]([BH2-]C#N)c5c(=O)[nH]c(N)nc54)OC3CO)O2)c2nc(N)[nH]c(=O)c21` (configuration not stated), the GI50 in the assay with SF-295, in the assay on A498, in the assay with SF-539, in the assay on HT-29, in the assay with COLO 205 and in the assay with CCRF-CEM was > 100 µM (inactive) each time. In addition, the GI50 in the assay with UO-31, in the assay with ACHN, in the assay on IGROV-1, in the assay on HOP-62, in the assay with SK-MEL-2 and in the assay on CAKI-1 was > 100 µM (inactive) throughout. Further, the GI50 with Malme-3M, in the assay on NCI-H522, with OVCAR-5, with SF-268, with 786-0 and with NCI-H460 was > 100 µM (inactive) each time.

Turning to `CCC(C)C1NC(=O)C2CCCN2C(=O)CNC(=O)C(C)NC(=O)C(Cc2ccccc2)NC(=O)C(C(C)C)NC1=O` (configuration not stated) (cyclo(GPIVFA); configuration not given here), the GI50 in the assay with SF-295, in the assay on A498, with TK-10, with SF-539, with HT-29 and in the assay with COLO 205 was > 100 µM (inactive) in each case. Besides, the GI50 in the assay with UO-31, in the assay with ACHN, with IGROV-1, with HOP-62, in the assay on CAKI-1 and in the assay on Malme-3M was > 100 µM (inactive) each time. The GI50 in the assay on OVCAR-5, in the assay with SF-268, with SK-OV-3, in the assay on 786-0 and in the assay with NCI-H460 was > 100 µM (inactive) in each case.

On to `CCC(=O)CC(=O)CCC(=O)Nc1cc(C)ccc1C`, for which the GI50 in the assay on SF-295, in the assay with A498, in the assay with TK-10, with SF-539, in the assay on HT-29 and in the assay with CCRF-CEM was > 100 µM (inactive) throughout. The GI50 with UO-31, in the assay with ACHN, in the assay on IGROV-1, in the assay on SK-MEL-2, in the assay with Malme-3M and with NCI-H522 was > 100 µM (inactive) throughout. Also, the GI50 in the assay with SF-268, in the assay on SK-OV-3, in the assay on 786-0 and in the assay with NCI-H460 was > 100 µM (inactive) throughout.

As to `COc1ccc(NC(=O)CC(=O)N2N=C(N(CCC#N)c3ccccc3Cl)CC2c2ccccc2)cc1` (configuration not stated), the GI50 in the assay on SF-295, in the assay on A498, with TK-10, with SF-539, in the assay on HT-29 and in the assay on COLO 205 was > 100 µM (inactive) throughout. The GI50 with CCRF-CEM, in the assay on UO-31, in the assay on ACHN, in the assay on IGROV-1, in the assay with HOP-62 and in the assay with SK-MEL-2 was > 100 µM (inactive) throughout. For the same compound, the GI50 in the assay with CAKI-1, in the assay on Malme-3M, in the assay on NCI-H522, in the assay on OVCAR-5, in the assay on SF-268 and in the assay with 786-0 was > 100 µM (inactive) in each case. The GI50 in the assay with NCI-H460 is > 100 µM (inactive).

In the case of `C[C@@](Br)(C(=O)O)[C@H](Br)C(=O)O`, the GI50 with SF-295, in the assay on A498, in the assay on TK-10, in the assay with HT-29, in the assay on COLO 205 and in the assay with CCRF-CEM was > 100 µM (inactive) each time. The GI50 with UO-31 was > 100 µM (inactive); in the assay with ACHN, > 100 µM (inactive); in the assay on IGROV-1 it was > 100 µM (inactive); with HOP-62 it was > 100 µM (inactive); in the assay on CAKI-1 it was 55.5 µM (inactive); with Malme-3M, > 100 µM (inactive). Further, the GI50 in the assay with OVCAR-5, in the assay on SF-268, in the assay on SK-OV-3, in the assay on 786-0 and in the assay on NCI-H460 was > 100 µM (inactive) in each case.
